Test results: patent US10759803B2, “Asparagine endopeptidase (AEP) inhibitors for managing cancer and compositions related thereto” (priority 2014, dated 2020)
One block for each compound: values may come before it.

Tests used:
AEP [1] = target: T1, AEP (Homo sapiens, UniProt Q99538); experiment: IC50 assay with purified recombinant AEP; type: biochemical; conditions: purified active AEP; read-out: IC50 toward AEP
T1 construct: tested with purified active AEP, IC50 values for the top 8 candidates were found
T1 sequence (Q99538 18-323 limits assumed): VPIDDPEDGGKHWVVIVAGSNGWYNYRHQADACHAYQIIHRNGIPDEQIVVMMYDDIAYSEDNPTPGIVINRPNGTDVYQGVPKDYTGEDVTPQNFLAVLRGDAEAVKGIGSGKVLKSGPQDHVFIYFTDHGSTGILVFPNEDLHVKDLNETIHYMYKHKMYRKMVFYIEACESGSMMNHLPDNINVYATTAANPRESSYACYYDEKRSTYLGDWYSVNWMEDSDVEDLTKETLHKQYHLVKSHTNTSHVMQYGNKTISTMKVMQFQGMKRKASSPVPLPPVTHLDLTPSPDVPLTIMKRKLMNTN
Procedure: Purified recombinant enzyme was incubated with various concentrations of inhibitor in appropriate assay buffers in the presence of increasing concentrations of inhibitor. The formation of fluorescent product was monitored in duplicate reactions and the data was fit to appropriate equations to calculate the IC50 values.
To identify small-molecule inhibitors of AEP, a high-throughput screen was designed in conjunction with the Emory Chemical Biology Discovery Center. The screen incorporated mouse kidney lysates to assay a 54,384 compound library. […] Additional structural analysis and grouping allowed the compounds to be sorted into 8 distinct backbone families. […] The specificity of the compounds was also determined using four major cysteine proteases (FIG. 2).
Various concentrations of the appropriate compound were incubated with AEP reaction buffer (50 mM Sodium Citrate pH 5.5, 0.1% CHAPS, 60 mM Na2HPO4, 1 mM EDTA, final pH 6.0) and peptide substrate, 10 μM Cbz-Ala-Ala-Asn-AMC (Bachem). The reaction was initiated upon addition of 50 nM AEP and fluorescent product formation was monitored over 15 min. […] Data were analyzed with GraFit version 5.0.11 software package.

Cathepsin-L = Cathepsin-L (Homo sapiens, UniProt P07711); experiment: Specificity assay against Cathepsin-L; type: biochemical
Sequence of Cathepsin-L (P07711 114-333, species assumed): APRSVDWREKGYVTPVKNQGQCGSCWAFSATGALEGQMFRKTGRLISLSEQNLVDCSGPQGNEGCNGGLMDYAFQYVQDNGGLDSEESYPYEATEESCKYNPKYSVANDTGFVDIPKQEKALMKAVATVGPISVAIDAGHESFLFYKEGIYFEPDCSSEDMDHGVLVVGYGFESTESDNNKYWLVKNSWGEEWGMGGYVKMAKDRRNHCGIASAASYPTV

[2] = target: T2, endogenous AEP in human B lymphoblastoid pala cells (Homo sapiens, UniProt Q99538); experiment: AEP inhibition in intact Pala cells; type: cell-based; conditions: 2 hrs incubation, residual enzymatic activity in lysate
T2 construct: human B lymphoblastoid pala cells, which are rich in endogenous AEP; endogenous in cells; host or cells: human B lymphoblastoid Pala cells
T2 sequence (Q99538 18-323): T1 sequence (Q99538 18-323 limits assumed)
Procedure: The cells were incubated with inhibitors for 2 hrs then cells washed, harvested and lysed and the residual enzymatic activity was determined. Lysate was normalized by Bradford assay and the experiment was performed in triplicate and the mean results and SEM were plotted.
In an attempt to assess the activity of the compounds in intact cells, the compounds were incubated with human B lymphoblastoid pala cells, which are rich in endogenous AEP and have been used for inhibiting AEP in cellular assay.

AEP [3] = target: T1, AEP; experiment: DTT / L-cysteine reversibility of AEP inhibition; type: biochemical; conditions: 10 mM DTT or L-cysteine added after 15 min
Procedure: AEP was reacted with specified inhibitor, after 15 min 10 mM DTT or L-cysteine was added to the reaction and the fluorescent signal was read for an additional 15 min. At the end of the second 15 min incubation, the percentage of product formed in the presence of each compound was determined in comparison to the DMSO control reaction.
Although it is not intended that embodiments of this disclosure be limited by any particular mechanism, to gain additional insight into the mechanism utilized by the inhibitors for abrogation of AEP activity, their reversibility in the presence of free thiols was determined. The addition of a strong reducing agent, such as DTT, or a weaker reducing agent, L-cysteine, to an inhibited reaction can be used to out-compete the inhibitory agent and restore catalytic activity to an enzyme with an active-site thiol residue. Here, a similar approach was used by adding a reducing agent, either DTT or L-cysteine, to a reaction, in which AEP had been incubated with a specified inhibitor, in an attempt to reverse the effects of the inhibitor. […] For compounds BB1 and 38, this increase in enzymatic activity may be due to the reduction of a disulfide linkage between the inhibitor and the enzyme, since these compounds contain thiols. Compound 10 contains a thiocyanate and may undergoes nucleophilic attack by the enzyme's active-site thiolate to form a thioimidate enzyme-inhibitor complex. Under acidic conditions, this complex is reducible by either a strong reducing agent, such as DTT, or the weaker L-cysteine.

AEP [4] = target: T1, AEP; experiment: Inhibition kinetics assays (steady-state, Z-AAN-AMC); type: biochemical; conditions: competitive inhibition
Procedure: (§1) KI values for each inhibitor were determined by global fits to the competitive inhibition equation. C. Time course inactivation assays were used to generate progress curves, depicting product formation as a function of time. […] E. Time course inactivation assays were used to generate progress curves, depicting product formation as a function of time. Pseudo first-order rate constants were obtained at each concentration of compound BB1. F. Re-plot of the pseudo first-order rate constants, kobs, vs. the concentration of compound BB1.
(§2) A. Michaelis-Menten plots displaying competitive inhibition of AEP. The inhibition constant, K1, was determined from the globally fit data. B. Double reciprocal Lineweaver-Burk plots also displaying competitive inhibition. C. […] DC. A plot of the corrected kobs values obtained from each curve in (B) versus the concentration of compound 38, which enabled the calculation of the second-order rate constant, kinact/KI to be determined to measure the potency of the inhibitor.
To determine the inhibition constants and the mechanism by which compound 38 inhibits AEP, the steady-state kinetic parameters for the hydrolysis of the peptide substrate, Z-AAN-AMC, were determined in the absence or presence of increasing concentrations of inhibitor. In these assays, specified concentrations of the inhibitor were pre-incubated with substrate for 10 min at 37° C., then 50 nM AEP was added to initiate the reaction, which was quenched after 10 min. […]
In the equations, Kii is the intercept Ki, and Kis is the slope Ki. The mode of the inhibition induced by the compounds on AEP was determined by the best fit of the data to equations 1-4. […]

AEP [5] = target: T1, AEP; experiment: Time course inactivation assays; type: biochemical
Procedure: as §1, §2
Progress curves were generated by incubating 5 μM Z-AAN-AMC and the specified concentration of inhibitor in assay buffer at 37° C. for 10 min. The reaction was initiated by the addition of 50 nM AEP and quenched after 10 min. The concentration of the product was determined from an AMC standard curve and the data was fit by nonlinear regression. Since the curves were nonlinear, they were fit to equation 5, using the GraFit version 5.0.11 software package, [Product]=vi(1−e^−kobs.app*t)/kobs.app (eq 5), where vi is the initial velocity, kobs.app is the apparent pseudo-first order rate constant for inactivation, and t is time. Equation 6, kobs=[…] (eq 6), was used to correct the apparent pseudo-first-order inactivation rate constants, obtained from this analysis, for substrate concentration and the pseudo-first-order inactivation rate constants, i.e. kobs, thus obtained, were plotted against the tested inhibitor concentrations. […]

[6] = BBB-PAMPA permeability assay; type: in vitro ADME
CYP3A4 = CYP3A4 (Homo sapiens, UniProt P08684); experiment: CYP inhibition screening, CYP3A4-Midazolam; type: in vitro ADME
Sequence of CYP3A4 (P08684 whole entry): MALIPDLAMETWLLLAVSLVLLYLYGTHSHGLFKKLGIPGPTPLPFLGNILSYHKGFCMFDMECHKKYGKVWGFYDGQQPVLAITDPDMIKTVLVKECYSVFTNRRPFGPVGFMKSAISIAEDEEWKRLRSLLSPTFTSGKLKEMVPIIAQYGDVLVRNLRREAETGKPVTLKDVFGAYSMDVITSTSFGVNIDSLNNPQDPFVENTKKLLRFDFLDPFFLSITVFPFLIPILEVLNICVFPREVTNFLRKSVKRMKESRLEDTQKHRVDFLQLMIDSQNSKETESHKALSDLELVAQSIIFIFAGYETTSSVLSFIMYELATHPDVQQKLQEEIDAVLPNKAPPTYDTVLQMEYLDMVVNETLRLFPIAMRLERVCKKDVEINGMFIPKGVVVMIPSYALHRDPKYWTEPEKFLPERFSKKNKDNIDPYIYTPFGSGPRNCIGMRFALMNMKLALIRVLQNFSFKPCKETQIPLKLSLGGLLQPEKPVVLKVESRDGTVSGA

CYP3A = experiment: CYP inhibition screening, CYP3A-Testosterone; type: in vitro ADME
CYP2C9 = CYP2C9 (Homo sapiens, UniProt P11712); experiment: CYP inhibition screening, CYP2C9; type: in vitro ADME
Sequence of CYP2C9 (P11712 whole entry): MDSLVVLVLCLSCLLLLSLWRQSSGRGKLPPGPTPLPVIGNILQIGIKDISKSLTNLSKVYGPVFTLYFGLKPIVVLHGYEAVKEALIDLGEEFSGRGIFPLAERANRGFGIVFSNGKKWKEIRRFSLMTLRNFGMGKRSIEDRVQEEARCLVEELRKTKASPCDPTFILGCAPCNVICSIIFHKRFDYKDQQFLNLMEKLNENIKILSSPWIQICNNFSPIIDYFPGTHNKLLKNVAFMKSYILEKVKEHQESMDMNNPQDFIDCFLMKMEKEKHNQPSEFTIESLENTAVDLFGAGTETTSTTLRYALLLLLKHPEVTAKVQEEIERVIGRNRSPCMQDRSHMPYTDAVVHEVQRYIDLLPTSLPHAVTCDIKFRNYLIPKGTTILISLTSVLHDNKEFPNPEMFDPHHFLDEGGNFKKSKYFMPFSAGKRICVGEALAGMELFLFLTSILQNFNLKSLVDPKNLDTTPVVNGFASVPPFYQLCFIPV

CYP2D6 = CYP2D6 (Homo sapiens, UniProt P10635); experiment: CYP inhibition screening, CYP2D6; type: in vitro ADME
Sequence of CYP2D6 (P10635 whole entry): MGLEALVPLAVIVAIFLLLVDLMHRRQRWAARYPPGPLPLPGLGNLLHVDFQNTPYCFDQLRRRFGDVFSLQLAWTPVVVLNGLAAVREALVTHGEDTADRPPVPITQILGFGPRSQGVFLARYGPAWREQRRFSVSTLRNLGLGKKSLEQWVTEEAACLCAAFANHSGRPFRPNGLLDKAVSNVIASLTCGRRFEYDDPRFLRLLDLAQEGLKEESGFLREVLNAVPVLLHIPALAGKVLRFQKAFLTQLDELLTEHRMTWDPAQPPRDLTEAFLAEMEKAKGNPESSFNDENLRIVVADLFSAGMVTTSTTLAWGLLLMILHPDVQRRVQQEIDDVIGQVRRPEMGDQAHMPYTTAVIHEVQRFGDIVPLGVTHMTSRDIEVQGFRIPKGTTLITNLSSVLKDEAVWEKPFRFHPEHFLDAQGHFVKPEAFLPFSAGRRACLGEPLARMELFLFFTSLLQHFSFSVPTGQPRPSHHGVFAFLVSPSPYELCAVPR

CYP2C19 = CYP2C19 (Homo sapiens, UniProt P33261); experiment: CYP inhibition screening, CYP2C19; type: in vitro ADME
Sequence of CYP2C19 (P33261 whole entry): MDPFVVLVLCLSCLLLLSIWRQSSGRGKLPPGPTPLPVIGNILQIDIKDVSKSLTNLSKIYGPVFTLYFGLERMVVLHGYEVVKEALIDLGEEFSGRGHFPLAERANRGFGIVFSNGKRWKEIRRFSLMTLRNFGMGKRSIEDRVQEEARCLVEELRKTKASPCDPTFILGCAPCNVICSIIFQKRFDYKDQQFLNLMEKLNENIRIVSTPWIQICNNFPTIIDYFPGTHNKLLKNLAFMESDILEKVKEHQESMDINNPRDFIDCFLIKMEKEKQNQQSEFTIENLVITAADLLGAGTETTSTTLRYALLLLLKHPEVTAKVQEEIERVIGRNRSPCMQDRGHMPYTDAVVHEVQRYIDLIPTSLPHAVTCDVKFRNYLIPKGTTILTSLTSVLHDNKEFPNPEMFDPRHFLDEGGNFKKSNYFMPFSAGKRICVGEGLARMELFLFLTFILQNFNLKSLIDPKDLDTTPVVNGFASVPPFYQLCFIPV

CYP1A2 = target: T3, CYP1A2 (Homo sapiens, UniProt P05177); experiment: CYP inhibition screening, CYP1A2; type: in vitro ADME
T3 sequence (P05177 1-516): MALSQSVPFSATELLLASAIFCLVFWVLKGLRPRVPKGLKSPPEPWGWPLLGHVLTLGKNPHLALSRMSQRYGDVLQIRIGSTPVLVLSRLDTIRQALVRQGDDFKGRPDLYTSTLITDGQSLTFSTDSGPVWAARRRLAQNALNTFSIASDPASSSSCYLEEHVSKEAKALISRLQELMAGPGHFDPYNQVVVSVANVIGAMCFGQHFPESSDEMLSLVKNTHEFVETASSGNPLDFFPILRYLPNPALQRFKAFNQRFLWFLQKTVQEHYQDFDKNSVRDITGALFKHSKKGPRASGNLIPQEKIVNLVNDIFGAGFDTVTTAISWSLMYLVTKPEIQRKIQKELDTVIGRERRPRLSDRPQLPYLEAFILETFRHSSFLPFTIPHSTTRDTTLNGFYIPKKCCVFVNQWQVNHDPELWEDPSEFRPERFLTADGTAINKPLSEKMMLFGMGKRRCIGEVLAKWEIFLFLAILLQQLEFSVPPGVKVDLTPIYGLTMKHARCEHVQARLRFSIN

AEP [7] = experiment: AEP activity in OGD-treated primary neurons; type: cell-based; conditions: 0.1 μM or 1.0 μM compound, 5 μM Cbz-Ala-Ala-Asn-AMC
Procedure: (§3) A. AEP activity, measured in primary neuronal cultures with 5 μM Cbz-Ala-Ala-Asn-AMC (x-axis denotes neurons were treated with 0.1 μM or 1.0 μM specified compound). B. Caspase activity, measured in primary neuronal cultures with 5 μM Ac-Asp-Glu-Val-Asp-AMC. C. Cathepsin activity, measured in primary neuronal cultures with 5 μM D-Val-Leu-Lys-AMC. D. Inhibition of APP cleavage. Lysates of primary cortical neurons pre-incubated with compounds for 30 min, underwent OGD for 4 hrs, were reperfused for 18 hrs (normoxia neurons remained at normoxic conditions). E. APP can be cleaved in a dose-dependent manner. Lysates of primary cortical neurons pre-incubated with compounds for 30 min, underwent OGD for 4 hrs, were reperfused for 18 hrs (normoxia neurons remained at normoxic conditions).
Depriving cells of oxygen and glucose is a cellular model that is employed to trigger acidosis in cultured cells. The efficacy of the compounds in a cellular model of oxygen-glucose deprivation (OGD) was determined in an effort to mimic the effects of stroke in primary cultured neurons. As a result of depriving neurons of oxygen and glucose-containing medium, AEP activity was doubled (FIG. 7A, ‘DMSO-Norm’ compared to ‘DMSO-OGD’), while Caspase-3 and Cathepsin activities remained relatively unchanged. […]

[8] = system: amyloid precursor protein (APP) cleavage; experiment: APP cleavage in OGD-treated primary cortical neurons; type: cell-based
Procedure: as §3
Depriving cells of oxygen and glucose is a cellular model that is employed to trigger acidosis in cultured cells. The efficacy of the compounds in a cellular model of oxygen-glucose deprivation (OGD) was determined in an effort to mimic the effects of stroke in primary cultured neurons. As a result of depriving neurons of oxygen and glucose-containing medium, AEP activity was doubled (FIG. 7A, ‘DMSO-Norm’ compared to ‘DMSO-OGD’), while Caspase-3 and Cathepsin activities remained relatively unchanged. […] Cleavage of APP is observed in response to only DMSO treatment (FIG. 7D, lane 2), and it appears that upon the treatment of 1 μM of compounds 10, 11, and 12, and just 0.1 μM of compound s31, 38 and 64, the cleavage was blocked, presumably due to AEP inhibition.

Caco-2 monolayer = Caco-2 monolayer permeability screen; conditions: Table 1
Procedure: To explore the in vitro ADME profiles of the compounds, additional tests were conducted.

[9] = Human liver microsomal stability screen; conditions: Human liver microsomes
[10] = Mouse liver microsomal stability screen; conditions: Mouse liver microsomes

IC50 (AEP [1]): ~130 nM
selectivity for AEP over Cathepsin-L (Cathepsin-L): about 38 fold
IC50 in intact Pala cells [2]: slightly larger IC50 values
inhibition constants in words (AEP [4]): nanomolar-range
second-order rate constant, kinact/KI (AEP [5]): 55000 M⁻¹ s⁻¹
Structure (SMILES): Sc1nnc(Nc2ccccc2)s1 [Compound BB1]
AEP activity after addition of reducing agent (reversibility) (AEP [3]): regained a substantial amount of activity

Structure (SMILES): Cc1cccc(NCc2ccc(O)c3ncccc23)c1C [Compound 12]
Pe [6]: <LLOQ
CYP3A4-Midazolam inhibition (CYP3A4; 3 μM): −2.5%
CYP3A4-Midazolam inhibition (CYP3A4; 10 μM): −2.5%
CYP3A-Testosterone inhibition (CYP3A; 3 μM): 14.2%
CYP3A-Testosterone inhibition (CYP3A; 10 μM): 27.6%
CYP2C9 inhibition (CYP2C9; 3 μM): 4.3%
CYP2C9 inhibition (CYP2C9; 10 μM): −2.7%
CYP2D6 inhibition (CYP2D6; 3 μM): 2.9%
CYP2D6 inhibition (CYP2D6; 10 μM): −2.6%
CYP2C19 inhibition (CYP2C19; 3 μM): 13.4%
CYP2C19 inhibition (CYP2C19; 10 μM): 29.4%
CYP1A2 inhibition (CYP1A2; 3 μM): 28.4%
CYP1A2 inhibition (CYP1A2; 10 μM): 44.5%
AEP activity in OGD neurons (AEP [7]): slight decrease
APP cleavage after OGD ([8]; 1 μM compound): blocked
APP cleavage after OGD, dose dependence ([8]; FIG. 7E): dose-dependent decrease
A −>B Papp (Caco-2 monolayer): 1.4 10^−6 cm · s^−1
B −> A Papp (Caco-2 monolayer): 3.7 10^−6 cm · s^−1
RE (Caco-2 monolayer): 2.7
Mean Remaining Parent (NADPH-free) [9]: 1%
Mean Remaining Parent (with NADPH) ([9]; 30 min): 1%
Mean Remaining Parent (NADPH-free) [10]: 0%
Mean Remaining Parent (with NADPH) [10]: 1%
